Where two headings read alike, the source gives them in different places.
How the values were obtained:
[1] = tested on: Salmonella typhimurium (S.typhi) 13311; test: In vitro sensitivity test (agar dilution method); assay type: cell-based; conditions: 37°C, 20 to 24 hours
[2] = tested on: Hemophilus pleuropneumonia (H.pp) M-1; test: In vitro sensitivity test (agar dilution method); assay type: cell-based; conditions: 37°C, 20 hours, 10 % CO₂
[3] = tested on: Staphylococcus aureus (S.au) 209P; test: In vitro sensitivity test (agar dilution method); assay type: cell-based; conditions: 37°C, 20 to 24 hours
How it was run: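 MS (liquid dilution): Frey medium + 12 % pig-serum + 0.01 % βNAD, 37°C, 7 days. S.au (agar dilution): Mueller Hinton agar, 37°C, 20 to 24 hours. P.pis: heart infusion agar + 1.5 % NaCl, 25°C, 40 to 48 hours. All strains animal-origin.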

[4] = tested on: Escherichia coli (E.coli) JC-2; test: In vitro sensitivity test (agar dilution method); assay type: cell-based; conditions: 37°C, 20 to 24 hours
[5] = tested on: TS-resistant strain of MG; assay type: in vivo, chicken; conditions: for Infectious index Left air sack + / Infectious index Left air sack ++ / Infectious index Left air sack +++ / Infectious index Left air sack - / Infectious index Right air sack + / Infectious index Right air sack ++ / Infectious index Right air sack +++ / Infectious index Right air sack -: count of fowl
[6] = tested on: Mycoplasma gallisepticum (MG) T-7-T, TS-resistant strain isolated from the field; test: In vitro sensitivity test (liquid dilution method); assay type: cell-based; conditions: 37°C, 7 days
[7] = tested on: Mycoplasma synoviae (MS) F10-2as; test: In vitro sensitivity test (liquid dilution method); assay type: cell-based; conditions: 37°C, 7 days
How it was run: (§1)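 For the fish-origin P.pis strain this meant heart infusion agar supplemented with 1.5 % NaCl at 25°C for 40 to 48 hours. S.au plates used Mueller Hinton agar at 37°C for 20 to 24 hours. MS broths used Frey medium with 12 % pig-serum and 0.01 % βNAD at 37°C for 7 days.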

[8] = tested on: Mycoplasma synoviae (MS) 1853; test: In vitro sensitivity test (liquid dilution method); assay type: cell-based; conditions: 37°C, 7 days
How it was run: as §1

[9] = tested on: Mycoplasma gallisepticum (MG) S6; test: In vitro sensitivity test (liquid dilution method); assay type: cell-based; conditions: 37°C, 7 days
[10] = oral 100 mg/kg, 9-days chicken, 1.7 x 10³ CFU/fowl
[11] = oral 100 mg/kg, 9-days chicken, 2.2 x 10³ CFU/fowl
[12] = oral 100 mg/kg, 10-days chicken, 1.2 x 10³ CFU/fowl
[13] = oral 100 mg/kg, 10-days chicken, 3.0 x 10³ CFU/fowl
[14] = oral 200 mg/kg, 9-days chicken, 1.7 x 10³ CFU/fowl
[15] = oral 200 mg/kg, 9-days chicken, 2.2 x 10³ CFU/fowl
[16] = oral 200 mg/kg, 10-days chicken, 1.2 x 10³ CFU/fowl
[17] = oral 200 mg/kg, 10-days chicken, 3.0 x 10³ CFU/fowl

C[C@H]1c2cccc(O)c2C(=O)C2=C(O)[C@]3(O)C(=O)C(C(N)=O)=C(O)[C@@H](N(C)C)[C@@H]3[C@@H](O)[C@@H]21 [DOXY, doxycycline, reference compound]
0: Infectious index Left air sack + [5, 10] | Infectious index Left air sack ++ [5, 10] | Infectious index Left air sack +++ [5, 10] | Infectious index Right air sack + [5, 10] | Infectious index Right air sack +++ [5, 10] | Infectious index Left air sack + [5, 11] | Infectious index Left air sack ++ [5, 11] | Infectious index Left air sack +++ [5, 11] | Infectious index Right air sack + [5, 11] | Infectious index Right air sack +++ [5, 11] | Infectious index Left air sack + [5, 12] | Infectious index Left air sack ++ [5, 12] | Infectious index Left air sack +++ [5, 12] | Infectious index Right air sack + [5, 12] | Infectious index Right air sack +++ [5, 12] | Infectious index Left air sack + [5, 13] | Infectious index Left air sack ++ [5, 13] | Infectious index Left air sack +++ [5, 13] | Infectious index Right air sack + [5, 13] | Infectious index Right air sack +++ [5, 13] | Infectious index Left air sack ++ [5, 14] | Infectious index Left air sack +++ [5, 14] | Infectious index Right air sack + [5, 14] | Infectious index Right air sack +++ [5, 14] | Infectious index Left air sack ++ [5, 15] | Infectious index Left air sack +++ [5, 15] | Infectious index Right air sack + [5, 15] | Infectious index Right air sack +++ [5, 15] | Infectious index Left air sack ++ [5, 16] | Infectious index Left air sack +++ [5, 16] | Infectious index Right air sack + [5, 16] | Infectious index Right air sack +++ [5, 16] | Infectious index Left air sack ++ [5, 17] | Infectious index Left air sack +++ [5, 17] | Infectious index Right air sack + [5, 17] | Infectious index Right air sack +++ [5, 17]
0.39 µg/ml: In vitro Sensitivity Test MS F10-2as [7]
0.2 µg/mL: In vitro Sensitivity Test MG T-7-T [6] | In vitro Sensitivity Test MG S6 [9]
1: Infectious index Right air sack ++ [5, 10] | Infectious index Right air sack ++ [5, 11] | Infectious index Right air sack ++ [5, 12] | Infectious index Right air sack ++ [5, 13] | Infectious index Left air sack + [5, 14] | Infectious index Right air sack ++ [5, 14] | Infectious index Left air sack + [5, 15] | Infectious index Right air sack ++ [5, 15] | Infectious index Left air sack + [5, 16] | Infectious index Right air sack ++ [5, 16] | Infectious index Left air sack + [5, 17] | Infectious index Right air sack ++ [5, 17] | Number of fowl having air sack lesions [5, 10] | Number of fowl having air sack lesions [5, 11] | Number of fowl having air sack lesions [5, 12] | Number of fowl having air sack lesions [5, 13] | Number of fowl having air sack lesions [5, 14] | Number of fowl having air sack lesions [5, 15] | Number of fowl having air sack lesions [5, 16]
0.1 µg/mL: In vitro Sensitivity Test S.typhi 13311 [1] | In vitro Sensitivity Test S.au 209P [3] | In vitro Sensitivity Test MS 1853 [8]
4: Infectious index Right air sack - [5, 10] | Infectious index Right air sack - [5, 11] | Infectious index Right air sack - [5, 12] | Infectious index Right air sack - [5, 13] | Infectious index Left air sack - [5, 14] | Infectious index Right air sack - [5, 14] | Infectious index Left air sack - [5, 15] | Infectious index Right air sack - [5, 15] | Infectious index Left air sack - [5, 16] | Infectious index Right air sack - [5, 16] | Infectious index Left air sack - [5, 17] | Infectious index Right air sack - [5, 17]
0.39 µg/mL: In vitro Sensitivity Test H.pp M-1 [2] | In vitro Sensitivity Test E.coli JC-2 [4]
5: Infectious index Left air sack - [5, 10] | Infectious index Left air sack - [5, 11] | Infectious index Left air sack - [5, 12] | Infectious index Left air sack - [5, 13] | Number of fowl having air sack lesions [5, 17]

— patent EP0429304A2, “Pyridone-carboxylic acid derivatives and their use as veterinary medicines” (SHIONOGI SEIYAKU KABUSHIKI KAISHA trading under the name of …, priority 1989, dated 1991)
